In a melting point compilation (Tetko et al.):

SMILES	melting point
O=P(O)(O)OC1C(O)C(O)C(O)C(O)C1O (stereo not drawn)	195 °C
Cc1cccc(OCC(=O)O)c1C	186 to 190 °C
Nc1cccc(S(=O)(=O)O)c1	300 °C
CO[C@@H](C)[C@H](N)C(=O)O	220 to 224 °C
c1ccc2c(c1)ccc1ccc3ccccc3c12	68 °C
COc1ccc(C(C)=NO)cc1OC	147 to 150 °C
Cc1ccc(S(=O)(=O)Nc2ccc(Cl)cc2)cc1	120 °C
O=CN(C=O)C(N(C=O)C=O)N(C=O)C=O	145 °C
Oc1cccc2c(O)nccc12	270 to 275 °C
O=C(O)CSc1nnc(S)s1	168 to 169 °C
Cc1cc(C)c(NC(=O)C(F)(F)C(F)(F)C(F)(F)C(F)(F)C(F)(F)C(F)(F)C(F)(F)C(F)(F)F)c(C)c1	63 °C
Cc1c(C(=O)c2ccccc2C(=O)O)sc2ccccc12	181 to 183 °C
COc1ccccc1CCC(=O)O	87 °C
O=C1CCCC(=O)N1	156 °C
CSc1sc(C(=O)O)c(Cl)c1S(=O)(=O)C(C)C	227 to 230 °C
COCc1cc(=O)oc2cc(O)c(Cl)cc12	196 to 198 °C
Nc1nc(-c2ccc3ccccc3c2)cs1	155 °C
COC(=O)[C@H](CSSC[C@@H](C(=O)OC)N1C(=O)[C@@H]2[C@H](C1=O)[C@@H]1C=C[C@H]2C1)N1C(=O)[C@@H]2[C@H](C1=O)[C@@H]1C=C[C@H]2C1	100 °C
O=C(CBr)c1ccc(OC(F)(F)F)cc1	55 to 58 °C
O=[N+]([O-])c1cc([N+](=O)[O-])c(C=C(Cl)c2ccccc2)cc1C=C(Cl)c1ccccc1	145 °C
CCCc1c(C(=O)O)cnn1-c1ccc(Cl)cc1	116 to 119 °C
O=C1Cc2cc3c(cc21)CC3=O	237 °C
COC(=O)c1cccc2[nH]ccc12	70 °C
CC1(C)C=C(C(=O)ON2C(=O)CCC2=O)C(C)(C)N1O	175 to 178 °C
CC(=O)OC1CCC2(C)C(=CC(=O)C3C2CCC2(C)C(OCc4ccccc4)CCC32)C1 (stereo not drawn)	203 °C
COc1ccccc1C(=O)N(NC(=O)c1ccccc1)C(C)(C)C	182 °C

SMILES	melting point
O=C(CN1CCNCC1)N1CCCC1	75 to 76 °C
CCOC(=O)Nc1c([N+](=O)[O-])cc(Cl)cc1[N+](=O)[O-]	167 °C
COc1ccc(OC)c2c(=O)c(=O)c12	191 °C
CC(C)(C)OC(=O)NCCCC[C@H](NC(=O)OCC1c2ccccc2-c2ccccc21)C(=O)O	134 to 137 °C
CCOC(=S)SSC(=S)OCC	30 °C
O=c1cc2oc3cc(O)c(O)cc3c(-c3ccccc3)c-2cc1O	300 °C
COCCOC1=C(N2CC2)C(=O)C(OCCOC)=C(N2CC2)C1=O	80 °C
CCCCCCCNC(=O)OCC1OC(OC)C(O)C(O)C1O (stereo not drawn)	103 to 105 °C
CNC(=O)Oc1cc(C)c(C)c(C)c1	110 °C
OCCN1CCN(CCO)CC1	135 °C
CCOC(=O)c1cn2c(n1)sc1ccccc12	133 to 134 °C
COc1c(C)c(C)c(OC)c(Br)c1C	72 °C
CCCCCBr	-92.7 °C
c1ccc(C2=NOC(c3ccccc3)C2)cc1 (stereo not drawn)	75 °C
Cc1ccc(S(N)(=O)=O)cc1Cl	137 °C
O=C(O)CCCCCCCCCCBr	57 °C
CN(C)c1ccc(N)c([N+](=O)[O-])c1	119 to 124 °C
NC(=O)c1ccccc1C(N)=O	222 °C
CNC(=O)C(=NOC)c1ccccc1Oc1ccccc1	88 °C
Cc1cc(N)no1	59 to 63 °C
C=C(C)CCCCCCCCCCCCCC	2 °C
CC1CCC(C)S1 (stereo not drawn)	-89 °C
Nc1ccc(C(F)(F)F)cc1I	51 °C
OCc1nccs1	62 to 64 °C
N#Cc1ccccc1N=C=O	61 to 62 °C
Fc1ccc(S)cc1F	34 to 38 °C

SMILES	melting point
O=S(=O)(O)c1ccc2cc(O)ccc2c1	125 °C
Nc1ccc(S(=O)(=O)F)cc1	68.5 °C
CC(=O)Nc1cc(Cl)c(Cl)cc1[N+](=O)[O-]	126 to 128 °C
COc1ccc(C(O)C(C)(C)C(=O)O)cc1 (stereo not drawn)	115 to 117 °C
c1ccc(-c2ncoc2-c2ccccc2)cc1	44 °C
CC(=O)c1ccccc1NC=O	65 to 68 °C
NC(=S)c1ccc2nonc2c1	132 to 135 °C
N=c1sc(C(=O)c2cccs2)nn1-c1cccc(C(F)(F)F)c1	185 °C
Clc1cccc(I)c1Cl	35 °C
C/C=C/c1ccccc1C(=O)O	81 to 86 °C
O=CC1=C(Cl)c2cc(Cl)ccc2SC1	84 to 86 °C
N#CC1CN(Cc2ccccc2)CN(Cc2ccccc2)C1	80 °C
CCN(CC)C(N)=O	66 to 71 °C
Cc1cc(C)c(O)cc1C	72 °C
Brc1cnc2ccccn12	93 °C
O=C(NC1CCN(CCc2c[nH]c3ccccc23)CC1)c1ccccc1	208 °C
Cc1cc(C(F)(F)F)n2nc(N)c(/N=N/c3ccc(Cl)cc3Cl)c2n1	210 °C
CC(OC1C(N)C(O)OC(CO)C1O)C(=O)O (stereo not drawn)	148 °C
CCCCOc1ccc(NC(C)=O)cc1	110 to 112 °C
O=C1CCC(c2ccccc2)=NN1c1n[nH]c(=S)n1-c1ccccc1	180 to 182 °C
CC(C)OC(=O)C1(S(=O)(=O)c2ccc([N+](=O)[O-])cc2)CCCCC1	110 °C
CCCC(c1ccc(O)cc1)c1ccc(O)cc1	137 °C
CN1C2CCCC1CC(=O)C2	63 to 65 °C
Cc1ccc2c(c1)CCC(C)C2 (stereo not drawn)	20 °C
Cc1coc2ccccc2c1=O	68 °C
O=Cc1ccccc1OCCN1CCOCC1	43 to 45 °C

SMILES	melting point
CC(C)(C)NCC(O)COc1cccc2c1CC(O)C(O)C2 (stereo not drawn)	124 °C
Cc1noc(C)c1C#N	46 to 48 °C
COc1cc(Cl)ccc1CO	47 °C
CNC(=O)C(C)(C(C)C)C(C)C	60 °C
CCCCC(CC)COC(=O)CCCCCCCC(=O)OCC(CC)CCCC (stereo not drawn)	-78 °C
CC(N)C(O)c1ccccc1 (stereo not drawn)	192 °C
CC(CN1C(=O)c2cccnc2Nc2ccccc21)N(C)C (stereo not drawn)	122 °C
Cn1c(/C(C#N)=N/Nc2c(Cl)cc(Cl)cc2Cl)nc2ccccc21	168 °C
ClCCCCCCCCCCCCCl	29 °C
NS(=O)(=O)c1ccc(CCCCCO)cc1	86 °C
CC1CC(C)CC(O)C1 (stereo not drawn)	11.6 °C
Cc1c(C)c2c(c3c1C(=O)C3)CC2=O	207 °C
Cc1ccc(N)cc1O	160 to 165 °C
Cc1c(NC=C2C(=O)NN=C2c2c(O)c3ccccc3n(C)c2=O)c(=O)n(-c2ccccc2)n1C	175 °C
O=C(O)c1cccc(-c2cnco2)c1	259 to 261 °C
O=C(O)CCC12CC3CC(CC(C3)C1)C2	147 to 148 °C
CCOC(=O)CNC(=O)c1cn(CC)c2nc(C)ccc2c1=O	198 °C
NCCc1c[nH]cn1	86 °C
Cc1cc(S(=O)(=O)Cl)c(Cl)cc1Cl	72 °C
CC12CCC3c4ccc(OC(=O)Cc5ccc(N(CCCl)CCCl)cc5)cc4CCC3C1CCC2OC(=O)Cc1ccc(N(CCCl)CCCl)cc1 (stereo not drawn)	52.5 °C
Cc1cc(C)c([N+](=O)[O-])c(C)c1	44 °C
COc1cccc2sc(N)nc12	156 °C
CC(=O)OC(OC(C)=O)c1ccco1	53.3 °C
CCOC(=O)/C(C(N)=S)=C1/NN=C(c2ccccc2O)O1	128 °C
CCC(COC(=O)c1cc(OC)c(OC)c(OC)c1)(c1ccccc1)N(C)C (stereo not drawn)	79 °C
Clc1c(Cl)c(Cl)c2c(Cl)c(Cl)c(Cl)c(Cl)c2c1Cl	198 °C

SMILES	melting point
O=[N+]([O-])c1ccccc1Sc1ccccc1	82 °C
NN=C1c2ccccc2C(=O)C1C(=O)C(c1ccccc1)c1ccccc1 (stereo not drawn)	241 to 243 °C
O=C(O)C[C@H](C(=O)O)c1ccccc1	173 to 176 °C
CCCC(CC)c1ccccc1 (stereo not drawn)	-55.4 °C
CCCCC(=O)OC1(C(=O)CO)CCC2C3CCC4=CC(=O)CCC4(C)C3C(O)CC21C (stereo not drawn)	218 °C
O=C(O)C=Cc1ccc(Sc2ccc(Br)cc2)c([N+](=O)[O-])c1	232 to 234 °C
COc1cc(F)c(F)cc1OC	40 °C
OC1OC2COC(c3ccccc3)OC2C(O)C1O (stereo not drawn)	173 to 174 °C
Cc1ccc(C=CC(=O)c2cccc([N+](=O)[O-])c2)cc1	143 to 146 °C
CC(O)c1ccc2ccccc2c1 (stereo not drawn)	74 °C
CC(=O)c1ccc(O)c([N+](=O)[O-])c1	132 °C
CC1c2ccccc2C(=O)C1c1ccccc1 (stereo not drawn)	84 to 85.5 °C
CN(C)C1C(=O)C(=C(N)O)C(=O)C2(O)C(=O)C3=C(O)c4c(O)cccc4C(C)(O)C3C(O)C12 (stereo not drawn)	121 °C
CCOC(=O)c1c(NC(=S)Nc2cccc(Cl)c2)sc2c1CCCC2	175 to 177 °C
O=C1CCCCCCCCCCCC1	25 °C
O=C(Nc1nnc(-c2ccc(Cl)cc2)o1)c1ccc(Cl)cc1Cl	212 to 213 °C
C#Cc1ccc(OC)cc1	28 to 30 °C
CC(=O)OC1(C(C)=O)CCC2C3CC(C)C4=CC(=O)C=CC4(C)C3(F)C(O)CC21C (stereo not drawn)	298 °C
Brc1c[nH]cn1	126 to 132 °C
COc1c(Cl)ccc(Cl)c1C(=O)O	115 °C
Brc1ccc(Oc2c(Br)c(Br)c(Br)c(Br)c2Br)cc1	184 °C
CC1CCC(C)(COC(=O)C2C(=O)C3(C)CCC2C3(C)C)C1(C)C (stereo not drawn)	146 °C
O=[N+]([O-])c1ccc(Nc2ccccc2O)c([N+](=O)[O-])c1	198 °C
CCc1ccccc1Cc1ccccc1N	35 °C
